Assay results from US4906755A, “Esters of hexahydro-8-hydroxy-2,6-methano-2H-quinolizin-3-(4H)-one and related compounds” (Merrell Dow Pharmaceuticals Inc., priority 1989, dated 1990).
Counter-ions that a name gives are not always drawn.

What was measured:
[1] = target: 5-HT M-receptor; details: 5-HT receptor antagonism; literature values (Fozard et al.); cited from earlier work
[2] = system: Von Bezold-Jarisch Reflex induced by 5-HT; experiment: Von Bezold-Jarisch Reflex induced by 5-HT injected intravenously into the rat; format: in vivo
From the text: The activity of these compounds against 5-HT can be assessed in vivo by measurement of the effect of the compound on the Von Bezold-Jarisch Reflex induced by 5-HT injected intravenously into the rat (see Paintal A. S., Physiol. Rev., 53, 159-227 […]; J. R. Fozard, Naunyn-Schmiedeberg's Arch. Pharmacol., 326, (1984) 36-44). The transient cardiac slowing arises from an increased afferent vagus activity arising from stimulation by 5-HT of sensory afferent fibers in and around the heart.

[3] = double-blind clinical trial (Loisy et al. 1985); cited from earlier work
[4] = animal experimental model (Miner et al.; Costall et al. 1986); cited from earlier work
[5] = slow intravenous injection, 10 mg; cited from earlier work
[6] = doses of 0.01-0.1 mg/kg given intravenously
[7] = doses of 0.25-1 mg/kg given orally

SMILES	pA2 [1]	prevention of nausea and vomiting induced by cancer chemotherapeutic agents [4]	also measured
COC(=O)[C@H]1[C@@H](OC(=O)c2ccccc2)C[C@@H]2CC[C@H]1N2 [nor (-) cocaine]	7.7	–	–
CN1[C@@H]2CC[C@H]1C[C@@H](OC(=O)c1ccccc1)C2 [benzoyltropine]	7.2	–	–
O=C(O[C@@H]1C[C@@H]2C[C@@H]3C[C@H](C1)N2CC3=O)c1c[nH]c2ccccc12 [endo-hexahydro-8-(3-indolylcarbonyloxy)-2,6-methano-2H-quinolizin-3(4H)onehydrochloride]	–	–	suppression of the Von Bezold-Jarisch Reflex response [2, 6]: suppressed the response dose-dependently; suppression of the Von Bezold-Jarisch Reflex response [2, 7]: suppressed the response dose-dependently
CN1[C@@H]2CC[C@H]1C[C@@H](OC(=O)c1cc(Cl)cc(Cl)c1)C2 [3,5-dichlorobenzoyltropine]	–	highly effective	treatment of the acute migraine attack [3]: proved an effective treatment
CCN(CC)CCNC(=O)c1cc(Cl)c(N)cc1OC [metoclopramide]	7.2	highly effective	relief of an acute migraine attack [5]: immediate relief
Cc1cc(C)cc(C(=O)O[C@@H]2C[C@@H]3C[C@@H]4C[C@H](C2)N3CC4=O)c1 [endo-8-(3,5-dimethylbenzoyloxy)hexahydro-2,6-methano-2H-quinolizin3(4H)-one]	–	–	suppression of the Von Bezold-Jarisch Reflex response [2, 6]: suppressed the response dose-dependently; suppression of the Von Bezold-Jarisch Reflex response [2, 7]: suppressed the response dose-dependently
CN1[C@@H]2CC[C@H]1C[C@H](OC(=O)c1ccccc1)C2 [pseudotropyl benzoate]	7.0	–	–
CN1[C@@H]2CC[C@H]1C[C@@H](OC(=O)c1c[nH]c3ccccc13)C2 [(3α-tropanyl)-lH-indole-3-carboxylic acid ester]	–	highly effective	–
